Activity calls are given as the source filed them. The rule behind the calls is not given here.
What was measured:
Klebsiella pneumoniae [1] = assay: Synergistic antibacterial activity against Klebsiella pneumoniae KPN-2677 assessed as polymixin B MIC at 4 ug/ml by broth microdilution method (reference value: 0.5 ug/ml); type: functional
Klebsiella pneumoniae [2] = assay: Synergistic antibacterial activity against Klebsiella pneumoniae SIPI-KPN-1712 assessed as fold reduction in polymixin B MIC at 4 ug/ml by broth microdilution method relative to polymixin B alone; type: functional
Klebsiella pneumoniae [3] = assay: Synergistic antibacterial activity against Klebsiella pneumoniae SIPI-KPN-1712 assessed as fold reduction in polymixin B MIC at 1 ug/ml by broth microdilution method relative to polymixin B alone; type: functional
Klebsiella pneumoniae [4] = assay: Synergistic antibacterial activity against Klebsiella pneumoniae SIPI-KPN-1712 assessed as polymixin B MIC at 4 ug/ml by broth microdilution method (reference value: 32 ug/ml); type: functional
Klebsiella pneumoniae [5] = assay: Synergistic antibacterial activity against Klebsiella pneumoniae KPN-2677 assessed as fold reduction in polymixin B MIC by broth microdilution method relative to polymixin B alone; type: functional
Klebsiella pneumoniae [6] = assay: Growth inhibition of Klebsiella pneumoniae SIPI-KPN-1712 by broth microdilution method; type: organism-based; settings: in vitro
Acinetobacter baumannii [7] = assay: Synergistic antibacterial activity against Acinetobacter baumannii ATCC 19606 assessed as polymixin B MIC at 4 ug/ml by broth microdilution method (reference value: 0.5 ug/ml); type: functional; settings: ATCC 19606 = CIP 70.34 = JCM 6841
Klebsiella pneumoniae [8] = assay: Synergistic bactericidal activity against Klebsiella pneumoniae SIPI-KPN-1712 at 4 ug/ml in presence of 0.5 to 1 ug/ml polymixin B up to 24 hrs by time kill assay; type: functional, organism-based
Pseudomonas aeruginosa [9] = assay: Synergistic antibacterial activity against Pseudomonas aeruginosa isolate 1292 in presence of polymixin B by broth microdilution method (reference value: 2 ug/ml); type: functional
Acinetobacter baumannii [10] = assay: Synergistic antibacterial activity against Acinetobacter baumannii isolate 4 in presence of polymixin B by broth microdilution method; type: functional
Escherichia coli [11] = assay: Growth inhibition of Escherichia coli isolate 2945 by broth microdilution method; type: organism-based
Acinetobacter baumannii [12] = assay: Synergistic antibacterial activity against Acinetobacter baumannii isolate 1 assessed as polymixin B MIC at 4 ug/ml by broth microdilution method (reference value: 2 ug/ml); type: functional
Escherichia coli [13] = assay: Synergistic antibacterial activity against Escherichia coli ATCC 25922 in presence of polymixin B by broth microdilution method; type: functional
Escherichia coli [14] = assay: Growth inhibition of Escherichia coli ATCC 25922 by broth microdilution method; type: organism-based
Acinetobacter baumannii [15] = assay: Synergistic antibacterial activity against Acinetobacter baumannii isolate 1 in presence of polymixin B by broth microdilution method; type: functional
Acinetobacter baumannii [16] = assay: Synergistic antibacterial activity against Acinetobacter baumannii ATCC 19606 in presence of polymixin B by broth microdilution method; type: functional, ATCC 19606 = CIP 70.34 = JCM 6841
Acinetobacter baumannii [17] = assay: Synergistic antibacterial activity against Acinetobacter baumannii isolate 2 in presence of polymixin B by broth microdilution method; type: functional
Escherichia coli [18] = assay: Synergistic antibacterial activity against Escherichia coli isolate 2945 assessed as polymixin B MIC at 4 ug/ml by broth microdilution method (reference value: 0.125 ug/ml); type: functional
Pseudomonas aeruginosa [19] = assay: Growth inhibition of Pseudomonas aeruginosa ATCC 27853 by broth microdilution method; type: organism-based
Klebsiella pneumoniae [20] = assay: Synergistic antibacterial activity against Klebsiella pneumoniae KPN-2967 assessed as polymixin B MIC at 4 ug/ml by broth microdilution method (reference value: 0.5 ug/ml); type: functional
Klebsiella pneumoniae [21] = assay: Synergistic antibacterial activity against Klebsiella pneumoniae KPN-2967 assessed as fold reduction in polymixin B MIC by broth microdilution method relative to polymixin B alone; type: functional
Klebsiella pneumoniae [22] = assay: Synergistic antibacterial activity against Klebsiella pneumoniae SIPI-KPN-1712 assessed as fold reduction in polymixin B MIC at 16 ug/ml by broth microdilution method relative to polymixin B alone; type: functional
Escherichia coli [23] = assay: Synergistic antibacterial activity against Escherichia coli ATCC 25922 assessed as polymixin B MIC at 4 ug/ml by broth microdilution method (reference value: 0.25 ug/ml); type: functional
Acinetobacter baumannii [24] = assay: Growth inhibition of Acinetobacter baumannii isolate 3 by broth microdilution method; type: organism-based
Pseudomonas aeruginosa [25] = assay: Synergistic antibacterial activity against Pseudomonas aeruginosa isolate 1292 assessed as polymixin B MIC at 4 ug/ml by broth microdilution method (reference value: 2 ug/ml); type: functional
Klebsiella pneumoniae [26] = assay: Synergistic antibacterial activity against Klebsiella pneumoniae KPN-2677 in presence of polymixin B by broth microdilution method; type: functional
Klebsiella pneumoniae [27] = assay: Growth inhibition of Klebsiella pneumoniae KPN-2967 by broth microdilution method; type: organism-based; settings: in vivo
Klebsiella pneumoniae [28] = assay: Synergistic antibacterial activity against Klebsiella pneumoniae KPN-2967 in presence of polymixin B by broth microdilution method; type: functional
Pseudomonas aeruginosa [29] = assay: Synergistic antibacterial activity against Pseudomonas aeruginosa ATCC 27853 assessed as polymixin B MIC at 4 ug/ml by broth microdilution method (reference value: 1 ug/ml); type: functional
Pseudomonas aeruginosa [30] = assay: Synergistic antibacterial activity against Pseudomonas aeruginosa ATCC 27853 in presence of polymixin B by broth microdilution method (reference value: 1 ug/ml); type: functional
Klebsiella pneumoniae [31] = assay: Synergistic antibacterial activity against Klebsiella pneumoniae SIPI-KPN-1712 assessed as fold reduction in polymixin B MIC at 2 ug/ml by broth microdilution method relative to polymixin B alone; type: functional
Klebsiella pneumoniae [32] = assay: Synergistic antibacterial activity against Klebsiella pneumoniae SIPI-KPN-1712 assessed as fold reduction in polymixin B MIC at 8 ug/ml by broth microdilution method relative to polymixin B alone; type: functional
Escherichia coli [33] = assay: Growth inhibition of Escherichia coli isolate 2944 by broth microdilution method; type: organism-based
Acinetobacter baumannii [34] = assay: Synergistic antibacterial activity against Acinetobacter baumannii isolate 3 in presence of polymixin B by broth microdilution method; type: functional
Acinetobacter baumannii [35] = assay: Synergistic antibacterial activity against Acinetobacter baumannii isolate 4 assessed as polymixin B MIC at 4 ug/ml by broth microdilution method (reference value: 0.5 ug/ml); type: functional
Pseudomonas aeruginosa [36] = assay: Synergistic antibacterial activity against Pseudomonas aeruginosa isolate 1399 in presence of polymixin B by broth microdilution method (reference value: 1 ug/ml); type: functional
Pseudomonas aeruginosa [37] = assay: Growth inhibition of Pseudomonas aeruginosa isolate 1292 by broth microdilution method; type: organism-based; settings: in vivo
Pseudomonas aeruginosa [38] = assay: Synergistic antibacterial activity against Pseudomonas aeruginosa isolate 1399 assessed as polymixin B MIC at 4 ug/ml by broth microdilution method (reference value: 1 ug/ml); type: functional
Klebsiella pneumoniae [39] = assay: Synergistic bactericidal activity against Klebsiella pneumoniae SIPI-KPN-1712 at 4 ug/ml in presence of 2 to 4 ug/ml polymixin B up to 24 hrs by time kill assay; type: functional, organism-based
Acinetobacter baumannii [40] = assay: Growth inhibition of Acinetobacter baumannii isolate 2 by broth microdilution method; type: organism-based
Acinetobacter baumannii [41] = assay: Synergistic antibacterial activity against Acinetobacter baumannii isolate 2 assessed as polymixin B MIC at 4 ug/ml by broth microdilution method (reference value: 1 ug/ml); type: functional
Klebsiella pneumoniae [42] = assay: Bactericidal activity against Klebsiella pneumoniae SIPI-KPN-1712 at 4 ug/ml up to 24 hrs by time kill assay; type: ADME, organism-based
Acinetobacter baumannii [43] = assay: Growth inhibition of Acinetobacter baumannii isolate 1 by broth microdilution method; type: organism-based
Pseudomonas aeruginosa [44] = assay: Growth inhibition of Pseudomonas aeruginosa isolate 1399 by broth microdilution method; type: organism-based; settings: in vivo
Klebsiella pneumoniae [45] = assay: Synergistic antibacterial activity against Klebsiella pneumoniae SIPI-KPN-1712 assessed as fractional Inhibitory concentration index in presence of polymixin B at 2 ug/ml by broth microdilution method; type: functional
Escherichia coli [46] = assay: Synergistic antibacterial activity against Escherichia coli isolate 2945 in presence of polymixin B by broth microdilution method (reference value: 0.125 ug/ml); type: functional
Klebsiella pneumoniae [47] = assay: Growth inhibition of Klebsiella pneumoniae KPN-2677 by broth microdilution method; type: organism-based
Escherichia coli [48] = assay: Synergistic antibacterial activity against Escherichia coli isolate 2944 assessed as polymixin B MIC at 4 ug/ml by broth microdilution method (reference value: 0.125 ug/ml); type: functional
Escherichia coli [49] = assay: Synergistic antibacterial activity against Escherichia coli isolate 2944 in presence of polymixin B by broth microdilution method (reference value: 0.125 ug/ml); type: functional
Acinetobacter baumannii [50] = assay: Growth inhibition of Acinetobacter baumannii isolate 4 by broth microdilution method; type: organism-based
Acinetobacter baumannii [51] = assay: Growth inhibition of Acinetobacter baumannii ATCC 19606 by broth microdilution method; type: organism-based, ATCC 19606 = CIP 70.34 = JCM 6841
Acinetobacter baumannii [52] = assay: Synergistic antibacterial activity against Acinetobacter baumannii isolate 3 assessed as polymixin B MIC at 4 ug/ml by broth microdilution method (reference value: 0.5 ug/ml); type: functional

`OC1CCCc2nc(Nc3ccc(Cl)cc3)sc21` (configuration not stated) was tested, and the MIC (Klebsiella pneumoniae [1]) was 0.5 µg/mL, the “fold change (FC)” value (Klebsiella pneumoniae [2]) was 64 and the “fold change (FC)” value (Klebsiella pneumoniae [3]) was 4. The MIC (Klebsiella pneumoniae [4]) was 0.5 µg/mL, the “fold change (FC)” value (Klebsiella pneumoniae [5]) was 32 and the MIC (Klebsiella pneumoniae [6]) was over 128 µg/mL. The MIC (Acinetobacter baumannii [7]) was 0.5 µg/mL, the Activity (Klebsiella pneumoniae [8]) was “inactive” and the “fractional inhibitory concentration index (FICI)” value (Pseudomonas aeruginosa [9]) was 1.03. The “fractional inhibitory concentration index (FICI)” value (Acinetobacter baumannii [10]) was 0.53, the MIC (Escherichia coli [11]) was over 64 µg/mL and the MIC (Acinetobacter baumannii [12]) was 2 µg/mL. The “fractional inhibitory concentration index (FICI)” value (Escherichia coli [13]) was 0.53, the MIC (Escherichia coli [14]) was over 64 µg/mL and the “fractional inhibitory concentration index (FICI)” value (Acinetobacter baumannii [15]) was 0.53. For the same compound, the “fractional inhibitory concentration index (FICI)” value (Acinetobacter baumannii [16]) was 0.53, the “fractional inhibitory concentration index (FICI)” value (Acinetobacter baumannii [17]) was 0.28 and the MIC (Escherichia coli [18]) was 0.125 µg/mL. The MIC (Pseudomonas aeruginosa [19]) was over 64 µg/mL, the MIC (Klebsiella pneumoniae [20]) was 0.5 µg/mL and the “fold change (FC)” value (Klebsiella pneumoniae [21]) was 8. The “fold change (FC)” value (Klebsiella pneumoniae [22]) was 128, the MIC (Escherichia coli [23]) was 0.25 µg/mL and the MIC (Acinetobacter baumannii [24]) was over 64 µg/mL. The MIC (Pseudomonas aeruginosa [25]) was 2 µg/mL, the “fractional inhibitory concentration index (FICI)” value (Klebsiella pneumoniae [26]) was 0.06 and the MIC (Klebsiella pneumoniae [27]) was over 64 µg/mL. The “fractional inhibitory concentration index (FICI)” value (Klebsiella pneumoniae [28]) was 0.16, the MIC (Pseudomonas aeruginosa [29]) was 1 µg/mL and the “fractional inhibitory concentration index (FICI)” value (Pseudomonas aeruginosa [30]) was 1.03. The “fold change (FC)” value (Klebsiella pneumoniae [31]) was 16, the “fold change (FC)” value (Klebsiella pneumoniae [32]) was 128 and the MIC (Escherichia coli [33]) was over 64 µg/mL. The “fractional inhibitory concentration index (FICI)” value (Acinetobacter baumannii [34]) was 0.53, the MIC (Acinetobacter baumannii [35]) was 0.5 µg/mL and the “fractional inhibitory concentration index (FICI)” value (Pseudomonas aeruginosa [36]) was 0.53. For the same compound, the MIC (Pseudomonas aeruginosa [37]) was over 64 µg/mL, the MIC (Pseudomonas aeruginosa [38]) was 1 µg/mL and the Activity (Klebsiella pneumoniae [39]) was “Active”. For the same compound, the MIC (Acinetobacter baumannii [40]) was over 64 µg/mL, the MIC (Acinetobacter baumannii [41]) was 1 µg/mL and the Activity (Klebsiella pneumoniae [42]) was “Non-Toxic”. The MIC (Acinetobacter baumannii [43]) was over 64 µg/mL, the MIC (Pseudomonas aeruginosa [44]) was over 64 µg/mL and the “fractional inhibitory concentration index (FICI)” value (Klebsiella pneumoniae [45]) was 0.05. For the same compound, the “fractional inhibitory concentration index (FICI)” value (Escherichia coli [46]) was 0.28, the MIC (Klebsiella pneumoniae [47]) was over 64 µg/mL and the MIC (Escherichia coli [48]) was 0.125 µg/mL. The “fractional inhibitory concentration index (FICI)” value (Escherichia coli [49]) was 0.28, the MIC (Acinetobacter baumannii [50]) was over 64 µg/mL and the MIC (Acinetobacter baumannii [51]) was over 64 µg/mL. The MIC (Acinetobacter baumannii [52]) was 0.5 µg/mL.
